Broadly, the IC50 is the concentration that inhibits the measured activity by half. One may read the Kd as the constant that tells how readily two partners part at equilibrium.

The text below walks through data of publication PMC3592416 (Nucleic Acids Research, 2012).

In assay [1] the target is T1, PoTC (Saccharomyces cerevisiae, UniProt P02406+P0CX27). The assay is described as follows: Release of mRNA from PoTC. Particulars: for effect of Mg2+ on the inhibitory effect (mRNA release): 100 µM antibiotic, various concentrations of MgCl2. The assay is classed as biochemical.
T1 sequence (P02406 2-149): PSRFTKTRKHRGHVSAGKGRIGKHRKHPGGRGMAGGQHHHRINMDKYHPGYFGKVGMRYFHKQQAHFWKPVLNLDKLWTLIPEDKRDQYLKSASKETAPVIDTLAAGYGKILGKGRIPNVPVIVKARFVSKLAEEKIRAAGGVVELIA
T1 sequence (P0CX27 2-106): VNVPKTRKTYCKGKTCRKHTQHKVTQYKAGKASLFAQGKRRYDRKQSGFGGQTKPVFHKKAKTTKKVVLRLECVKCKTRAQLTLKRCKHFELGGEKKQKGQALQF
T1 sequence (P16521 2-1044 partner): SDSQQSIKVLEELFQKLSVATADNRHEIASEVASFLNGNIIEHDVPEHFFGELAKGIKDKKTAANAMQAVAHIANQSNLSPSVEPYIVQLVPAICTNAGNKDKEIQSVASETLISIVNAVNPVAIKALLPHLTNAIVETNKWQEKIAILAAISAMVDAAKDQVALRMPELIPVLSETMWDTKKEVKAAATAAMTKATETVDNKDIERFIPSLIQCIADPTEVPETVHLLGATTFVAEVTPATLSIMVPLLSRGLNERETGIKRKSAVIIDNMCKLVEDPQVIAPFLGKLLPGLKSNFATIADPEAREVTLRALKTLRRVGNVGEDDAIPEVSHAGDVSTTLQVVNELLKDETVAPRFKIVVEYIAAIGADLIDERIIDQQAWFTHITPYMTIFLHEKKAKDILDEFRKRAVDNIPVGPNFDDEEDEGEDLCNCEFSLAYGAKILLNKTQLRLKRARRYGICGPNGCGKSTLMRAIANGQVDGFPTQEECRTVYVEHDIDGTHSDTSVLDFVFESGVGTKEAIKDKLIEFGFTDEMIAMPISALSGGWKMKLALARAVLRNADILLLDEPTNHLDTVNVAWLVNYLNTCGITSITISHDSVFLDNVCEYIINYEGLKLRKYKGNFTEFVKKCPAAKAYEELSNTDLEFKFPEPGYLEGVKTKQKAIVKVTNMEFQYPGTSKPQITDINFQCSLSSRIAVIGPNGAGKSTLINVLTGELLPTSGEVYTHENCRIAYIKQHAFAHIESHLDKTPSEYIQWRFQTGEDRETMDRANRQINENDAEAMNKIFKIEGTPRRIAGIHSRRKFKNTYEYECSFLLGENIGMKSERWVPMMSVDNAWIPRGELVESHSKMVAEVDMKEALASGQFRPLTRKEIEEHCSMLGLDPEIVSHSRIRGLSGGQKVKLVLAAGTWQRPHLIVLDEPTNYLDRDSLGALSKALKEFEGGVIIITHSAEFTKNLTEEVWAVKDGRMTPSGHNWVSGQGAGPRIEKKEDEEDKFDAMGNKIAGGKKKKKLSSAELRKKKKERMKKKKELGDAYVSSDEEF
Assay [2] concerns eEF3/ribosomes. Nature of the assay: ATP hydrolysis assay. The assay is classed as biochemical, Saccharomyces cerevisiae. Particulars: for amount of ATPase inhibited: total ATP hydrolysis 97 pmol.
In assay [3] the target is T1, PoTC. The assay is described as follows: Complete disassembly of PoTC by eEF3/ATP. Particulars: for inhibition of eEF3-dependent disassembly reaction: 1 mM antibiotic. The assay is classed as biochemical.
For assay [4], the system named is translocation. To be noted: cited from earlier work.
Assay [5] concerns the target vacant ribosomes. To be noted: read-out: Kd with vacant ribosomes; cited from earlier work.
Assay [6] has as its target T1, PoTC. Particulars: inhibitor alone, without eEF2/GTP; cited from earlier work.
Assay [7] concerns the target T1, PoTC. Particulars: cited from earlier work.
Assay [8] relates to yeast ribosomal subunits. Nature of the assay: Induction of subunit association. The assay is classed as biochemical. To be noted: 1 mM PAR, 5 s at 30°C after disassembly.
Setting [9] is: 1 mM antibiotic, 50 µM ATP, 0.5 µM eEF3, 1 min 30°C.

As for `C[C@@H]1C[C@@H]([C@H](O)CC2CC(=O)NC(=O)C2)C(=O)[C@@H](C)C1` [CHX, cycloheximide], the “effect of Mg2+ on the inhibitory effect (mRNA release)” value in assay [1] is recorded as “remarkable stimulatory effect”. Also, in assay [1] (Lineweaver-Burk, mRNA release), the “mode of inhibition with respect to ATP” value is listed as “non-competitive inhibitor” and the “mode of inhibition with respect to eEF3” value is “non-competitive inhibitor”. Also, in assay [2] (setting [9]), the “inhibition of ATP hydrolysis by eEF3/ribosomes” value (“inhibition … by eEF3/ribosomes” below) is ~20%. Also, the “amount of ATPase inhibited” value in assay [2] (1 mM antibiotic) amounted to 22 pmol. Besides, the “inhibition of eEF3-dependent disassembly reaction” value in assay [3] is listed as “almost complete maximum inhibition”. Also, the IC50 in assay [4] (read-out: IC50 for the inhibition of translocation) was 1.2 µM. For the same molecule, the Kd in assay [5] was 15 µM.
As to `CC(=O)O[C@H]1C[C@@]2(C)[C@@H](C[C@@H](O)[C@H]3[C@@]4(C)CC[C@@H](O)[C@@H](C)[C@@H]4CC[C@@]32C)/C1=C(\CCC=C(C)C)C(=O)O` [FA, fusidic acid], in assay [6], the “inhibition of eEF3-dependent release of mRNA from PoTC” value is recorded as “only slightly inhibit”.
Take `C/C(=C\[C@H](C)C(=O)C[C@H](O)CC1CC(=O)NC(=O)C1)[C@@H]1OC(=O)/C=C/CC/C=C/C=C\[C@@H]1C` [LTM, lactimidomycin]: the “concentration at which maximum inhibition was obtained” value in assay [3] (three disassembly reactions) is 100 µM. Further, the “concentration which inhibits translocation almost completely” value in assay [4] was 200 µM.
As for `[O]=[V]([O-])([O-])[O-]` [vanadate], in assay [2] (vanadate positive control), the “amount of ATP hydrolysis inhibited” value worked out at 52 pmol and the “inhibition … by eEF3/ribosomes” value is listed as “about 50%”. In assay [7], the “effect on the disassembly of PoTC” value is “without inhibiting”.
Consider `NC[C@@H]1O[C@H](O[C@H]2[C@@H](O)[C@H](O[C@@H]3[C@@H](O)[C@H](N)C[C@H](N)[C@H]3O[C@H]3O[C@H](CO)[C@@H](O)[C@H](O)[C@H]3N)O[C@@H]2CO)[C@H](N)[C@@H](O)[C@@H]1O` [PAR, paromomycin], for which the “effect of Mg2+ on the inhibitory effect (mRNA release)” value in assay [1] is recorded as “not significantly influenced”. Also, in assay [2] (setting [9]), the “inhibition … by eEF3/ribosomes” value is listed as ~20%. Besides, the “amount of ATPase inhibited” value in assay [2] (1 mM antibiotic) amounted to 22 pmol. Also, the “inhibition of eEF3-dependent disassembly reaction” value in assay [3] was “almost complete maximum inhibition”. Moreover, the “association of ribosomal subunits” value in assay [8] is “re-associated yeast ribosomal subunits”.
With `CO[C@H]1[C@@H](O)[C@H](O)[C@H](OC[C@@]23C[C@@H]4[C@H](C)CC[C@H]4[C@@]4(C=O)CC2C=C(C(C)C)[C@@]34C(=O)O)O[C@@H]1C` [SOR, sordarin], in assay [6], the “inhibition of eEF3-dependent release of mRNA from PoTC” value is reported as “only slightly inhibit”.
